≈ marks a conversion by molar mass, not a printed value.
What was measured:
Format in all cases: cell-based
[1] = tested on: Staphylococcus aureus 692E; assay: In vitro antibacterial activity against resistant strains (MIC); conditions: resistant strain Staphylococcus aureus 692E; 2-fold agar dilution; methicillin resistant strains 48 hours at 30° C.; read-out: minimum inhibitory concentration (MIC)
Procedure: (§1) 10^7 cfu/ml of bacteria were inoculated and cultured for 18 hours at 37° C. and then the antibacterial activities were measured. For the methicillin resistant strains the activities were measured after 48 hours of cultivation at 30° C. Hoechst Standard strains were used for the testings.

[2] = tested on: Staphylococcus aureus 241; assay: as above; conditions: resistant strain Staphylococcus aureus 241; 2-fold agar dilution; methicillin resistant strains 48 hours at 30° C.; read-out: minimum inhibitory concentration (MIC)
Procedure: as §1

[3] = tested on: Staphylococcus epidermidis 178; assay: as above; conditions: resistant strain Staphylococcus epidermidis 178; 2-fold agar dilution; methicillin resistant strains 48 hours at 30° C.; read-out: minimum inhibitory concentration (MIC)
Procedure: as §1

[4] = tested on: Staphylococcus aureus 293; assay: as above; conditions: resistant strain Staphylococcus aureus 293; 2-fold agar dilution; methicillin resistant strains 48 hours at 30° C.; read-out: minimum inhibitory concentration (MIC)
Procedure: as §1

[5] = tested on: Staphylococcus aureus 697E; assay: as above; conditions: resistant strain Staphylococcus aureus 697E; 2-fold agar dilution; methicillin resistant strains 48 hours at 30° C.; read-out: minimum inhibitory concentration (MIC)
Procedure: as §1

[6] = tested on: Staphylococcus aureus 703E; assay: as above; conditions: resistant strain Staphylococcus aureus 703E; 2-fold agar dilution; methicillin resistant strains 48 hours at 30° C.; read-out: minimum inhibitory concentration (MIC)
Procedure: as §1

[7] = tested on: Staphylococcus aureus 8236; assay: as above; conditions: resistant strain Staphylococcus aureus 8236; 2-fold agar dilution; methicillin resistant strains 48 hours at 30° C.; read-out: minimum inhibitory concentration (MIC)
Procedure: as §1

[8] = tested on: Staphylococcus aureus 179; assay: as above; conditions: resistant strain Staphylococcus aureus 179; 2-fold agar dilution; methicillin resistant strains 48 hours at 30° C.; read-out: minimum inhibitory concentration (MIC)
Procedure: as §1

[9] = tested on: Staphylococcus aureus 88E; assay: as above; conditions: resistant strain Staphylococcus aureus 88E; 2-fold agar dilution; methicillin resistant strains 48 hours at 30° C.; read-out: minimum inhibitory concentration (MIC)
Procedure: as §1

[10] = tested on: Staphylococcus aureus 701E; assay: as above; conditions: resistant strain Staphylococcus aureus 701E; 2-fold agar dilution; methicillin resistant strains 48 hours at 30° C.; read-out: minimum inhibitory concentration (MIC)
Procedure: as §1

[11] = tested on: Staphylococcus aureus 693E; assay: as above; conditions: resistant strain Staphylococcus aureus 693E; 2-fold agar dilution; methicillin resistant strains 48 hours at 30° C.; read-out: minimum inhibitory concentration (MIC)
Procedure: as §1

[12] = tested on: Staphylococcus aureus 694E; assay: as above; conditions: resistant strain Staphylococcus aureus 694E; 2-fold agar dilution; methicillin resistant strains 48 hours at 30° C.; read-out: minimum inhibitory concentration (MIC)
Procedure: as §1

[13] = tested on: Staphylococcus aureus 695E; assay: as above; conditions: resistant strain Staphylococcus aureus 695E; 2-fold agar dilution; methicillin resistant strains 48 hours at 30° C.; read-out: minimum inhibitory concentration (MIC)
Procedure: as §1

[14] = tested on: Staphylococcus epidermidis 291; assay: as above; conditions: resistant strain Staphylococcus epidermidis 291; 2-fold agar dilution; methicillin resistant strains 48 hours at 30° C.; read-out: minimum inhibitory concentration (MIC)
Procedure: as §1

[15] = tested on: Staphylococcus aureus 121E; assay: as above; conditions: resistant strain Staphylococcus aureus 121E; 2-fold agar dilution; methicillin resistant strains 48 hours at 30° C.; read-out: minimum inhibitory concentration (MIC)
Procedure: as §1

[16] = tested on: Staphylococcus aureus 690E; assay: as above; conditions: resistant strain Staphylococcus aureus 690E; 2-fold agar dilution; methicillin resistant strains 48 hours at 30° C.; read-out: minimum inhibitory concentration (MIC)
Procedure: as §1

[17] = tested on: Staphylococcus aureus 303; assay: as above; conditions: resistant strain Staphylococcus aureus 303; 2-fold agar dilution; methicillin resistant strains 48 hours at 30° C.; read-out: minimum inhibitory concentration (MIC)
Procedure: as §1

[18] = tested on: Staphylococcus aureus 256E; assay: as above; conditions: resistant strain Staphylococcus aureus 256E; 2-fold agar dilution; methicillin resistant strains 48 hours at 30° C.; read-out: minimum inhibitory concentration (MIC)
Procedure: as §1

[19] = tested on: Staphylococcus aureus 208E; assay: as above; conditions: resistant strain Staphylococcus aureus 208E; 2-fold agar dilution; methicillin resistant strains 48 hours at 30° C.; read-out: minimum inhibitory concentration (MIC)
Procedure: as §1

[20] = tested on: Klebsiella oxytoca 1082E; assay: In vitro antibacterial activity (MIC), agar dilution; conditions: 2-fold agar dilution, Muller-Hinton agar, 18 hours at 37° C., read-out: minimum inhibitory concentration (MIC)
Procedure: as §1

[21] = tested on: Streptococcus pyogens 308A; assay: as above; conditions: 2-fold agar dilution, Muller-Hinton agar, 18 hours at 37° C., read-out: minimum inhibitory concentration (MIC)
Procedure: as §1

[22] = tested on: Enterobacter clocae 1321E; assay: as above; conditions: 2-fold agar dilution, Muller-Hinton agar, 18 hours at 37° C., read-out: minimum inhibitory concentration (MIC)
Procedure: as §1

[23] = tested on: Enterobacter clocae P99; assay: as above; conditions: 2-fold agar dilution, Muller-Hinton agar, 18 hours at 37° C., read-out: minimum inhibitory concentration (MIC)
Procedure: as §1

[24] = tested on: Esherichia coli 1507E; assay: as above; conditions: 2-fold agar dilution, Muller-Hinton agar, 18 hours at 37° C., read-out: minimum inhibitory concentration (MIC)
Procedure: as §1

[25] = tested on: Salmonella typhimurium; assay: as above; conditions: Salmonella enterica, 2-fold agar dilution, Muller-Hinton agar, 18 hours at 37° C., read-out: minimum inhibitory concentration (MIC)
Procedure: as §1

[26] = tested on: Pseudomonas aeruginosa 9027; assay: as above; conditions: 2-fold agar dilution, Muller-Hinton agar, 18 hours at 37° C., read-out: minimum inhibitory concentration (MIC)
Procedure: as §1

[27] = tested on: Pseudomonas aeruginosa 1771M; assay: as above; conditions: Pseudomonas aeruginosa, 1771M, 18 h, read-out: minimum inhibitory concentration (MIC)
Procedure: as §1

[28] = tested on: Streptococcus faecium MD 8b; assay: as above; conditions: Enterococcus faecium, MD8B, 2-fold agar dilution, Muller-Hinton agar, 18 hours at 37° C., read-out: minimum inhibitory concentration (MIC)
Procedure: as §1

[29] = tested on: Klebsiella aerogenes 1522E; assay: as above; conditions: 2-fold agar dilution, Muller-Hinton agar, 18 hours at 37° C., read-out: minimum inhibitory concentration (MIC)
Procedure: as §1

[30] = tested on: Esherichia coli 078; assay: as above; conditions: 2-fold agar dilution, Muller-Hinton agar, 18 hours at 37° C., read-out: minimum inhibitory concentration (MIC)
Procedure: as §1

[31] = tested on: Esherichia coli TEM; assay: as above; conditions: 2-fold agar dilution, Muller-Hinton agar, 18 hours at 37° C., read-out: minimum inhibitory concentration (MIC)
Procedure: as §1

[32] = tested on: Streptococcus pyogens 77A; assay: as above; conditions: 2-fold agar dilution, Muller-Hinton agar, 18 hours at 37° C., read-out: minimum inhibitory concentration (MIC)
Procedure: as §1

[33] = tested on: Pseudomonas aeruginosa 1592E; assay: as above; conditions: 2-fold agar dilution, Muller-Hinton agar, 18 hours at 37° C., read-out: minimum inhibitory concentration (MIC)
Procedure: as §1

[34] = tested on: Staphylococcus aureus SG511; assay: as above; conditions: 2-fold agar dilution, Muller-Hinton agar, 18 hours at 37° C., read-out: minimum inhibitory concentration (MIC)
Procedure: as §1

[35] = tested on: Pseudomonas aeruginosa 1771; assay: as above; conditions: 2-fold agar dilution, Muller-Hinton agar, 18 hours at 37° C., read-out: minimum inhibitory concentration (MIC)
Procedure: as §1

[36] = tested on: Esherichia coli DC0; assay: as above; conditions: 2-fold agar dilution, Muller-Hinton agar, 18 hours at 37° C., read-out: minimum inhibitory concentration (MIC)
Procedure: as §1

[37] = tested on: Staphylococcus aureus 503; assay: as above; conditions: 2-fold agar dilution, Muller-Hinton agar, 18 hours at 37° C., read-out: minimum inhibitory concentration (MIC)
Procedure: as §1

[38] = tested on: Staphylococcus aureus 285; assay: as above; conditions: 2-fold agar dilution, Muller-Hinton agar, 18 hours at 37° C., read-out: minimum inhibitory concentration (MIC)
Procedure: as §1

[39] = tested on: Esherichia coli DC2; assay: as above; conditions: 2-fold agar dilution, Muller-Hinton agar, 18 hours at 37° C., read-out: minimum inhibitory concentration (MIC)
Procedure: as §1

SMILES | MIC [1] [µg/mL] | MIC [20] [µg/mL] | MIC [21] [µg/mL] | MIC [22] [µg/mL] | MIC [23] [µg/mL] | MIC [24] [µg/mL] | MIC [25] [µg/mL] | MIC [26] [µg/mL] | MIC [27] [µg/mL] | MIC [28] [µg/mL] | MIC [29] [µg/mL] | MIC [30] [µg/mL] | MIC [31] [µg/mL] | MIC [32] [µg/mL] | MIC [33] [µg/mL] | MIC [34] [µg/mL] | MIC [35] [µg/mL] | MIC [36] [µg/mL] | MIC [37] [µg/mL] | MIC [38] [µg/mL] | further results
CON=C1CN(c2nc3c(cc2F)c(=O)c(C(=O)O)cn3C2CC2)CC12CNC2.CS(=O)(=O)O [Example 1, 1-Cyclopropyl-6-fluoro-7-[8-(methoxyimino)-2,6-diazaspiro[3,4]oct-6-yl]-4-oxo-1,4-dihydro[1,8]naphthyridine-3-carboxylic acid methanesulfonate] | 0.025 | 0.004 | 0.098 | 0.013 | 0.025 | 0.025 | 0.013 | 0.781 | 0.391 | 0.049 | 0.049 | 0.013 | 0.025 | 0.007 | 0.391 | 0.007 | 0.391 | 0.195 | 0.025 | 0.025 | MIC [2]: 0.781 µg/mL; MIC [3]: 1.56 µg/mL; MIC [4]: 0.781 µg/mL; MIC [5]: 0.013 µg/mL; MIC [6]: 0.049 µg/mL; MIC [7]: 0.781 µg/mL; MIC [8]: 0.781 µg/mL; MIC [9]: 0.049 µg/mL; MIC [10]: 0.049 µg/mL; MIC [11]: 0.049 µg/mL; MIC [12]: 0.049 µg/mL; MIC [13]: 0.049 µg/mL; MIC [14]: 1.56 µg/mL; MIC [15]: 0.049 µg/mL; MIC [16]: 0.025 µg/mL; MIC [17]: 0.781 µg/mL; MIC [18]: 0.025 µg/mL; MIC [19]: 0.049 µg/mL
CON=C1CN(c2c(F)cc3c(=O)c(C(=O)O)cn(C4CC4)c3c2F)CC12CNC2 [Example 3, 1-Cyclopropyl-6,8-difluoro-7-[8-(methoxyimino)-2,6-diazaspiro[3,4]oct-6-yl]-4-oxo-1,4-dihydro-3-quinolinecarboxylic acid] |  | 0.007 (≈ 0.0167 µM) | 0.391 (≈ 0.935 µM) | 0.025 (≈ 0.0598 µM) | 0.049 (≈ 0.117 µM) | 0.049 (≈ 0.117 µM) | 0.025 (≈ 0.0598 µM) | 1.56 (≈ 3.74 µM) | 0.781 (≈ 1.87 µM) | 0.098 (≈ 0.234 µM) | 0.098 (≈ 0.234 µM) | 0.098 (≈ 0.234 µM) | 0.049 (≈ 0.117 µM) | 0.025 (≈ 0.0598 µM) | 0.781 (≈ 1.87 µM) | 0.025 (≈ 0.0598 µM) | 1.56 (≈ 3.74 µM) | 0.391 (≈ 0.935 µM) | 0.098 (≈ 0.234 µM) | 0.049 (≈ 0.117 µM) | MIC [39]: 0.025 µg/mL (≈ 0.0598 µM)
C[C@@H]1CN(c2c(F)c(N)c3c(=O)c(C(=O)O)cn(C4CC4)c3c2F)C[C@H](C)N1 [Sparfloxacin, sparfloxacin, reference compound] | 0.049 (≈ 0.125 µM) | < 0.002 | 0.391 (≈ 0.996 µM) | 0.004 (≈ 0.0102 µM) | 0.007 (≈ 0.0178 µM) | 0.025 (≈ 0.0637 µM) | 0.007 (≈ 0.0178 µM) | 0.781 (≈ 1.99 µM) | 0.195 (≈ 0.497 µM) | 0.391 (≈ 0.996 µM) | 0.025 (≈ 0.0637 µM) | 0.004 (≈ 0.0102 µM) | 0.013 (≈ 0.0331 µM) | 0.195 (≈ 0.497 µM) | 0.781 (≈ 1.99 µM) | 0.098 (≈ 0.25 µM) | 0.781 (≈ 1.99 µM) | 0.195 (≈ 0.497 µM) | 0.049 (≈ 0.125 µM) | 0.049 (≈ 0.125 µM) | MIC [2]: 6.25 µg/mL (≈ 15.9 µM); MIC [3]: 6.25 µg/mL (≈ 15.9 µM); MIC [4]: 6.25 µg/mL (≈ 15.9 µM); MIC [5]: 0.049 µg/mL (≈ 0.125 µM); MIC [6]: 0.098 µg/mL (≈ 0.25 µM); MIC [7]: 6.25 µg/mL (≈ 15.9 µM); MIC [8]: 6.25 µg/mL (≈ 15.9 µM); MIC [9]: 0.098 µg/mL (≈ 0.25 µM); MIC [10]: 0.098 µg/mL (≈ 0.25 µM); MIC [11]: 0.049 µg/mL (≈ 0.125 µM); MIC [12]: 0.098 µg/mL (≈ 0.25 µM); MIC [13]: 0.049 µg/mL (≈ 0.125 µM); MIC [14]: 6.25 µg/mL (≈ 15.9 µM); MIC [15]: 0.098 µg/mL (≈ 0.25 µM); MIC [16]: 0.049 µg/mL (≈ 0.125 µM); MIC [17]: 3.12 µg/mL (≈ 7.96 µM); MIC [18]: 0.098 µg/mL (≈ 0.25 µM); MIC [19]: 0.098 µg/mL (≈ 0.25 µM)
